Values joined by “and” are separate entries in the source; they are usually repeats but may differ in a detail not shown here. Identical values can stand only once.
How the values were obtained:
Assay type in all cases: cell-based
hPAR2 [1] = target: T1, hPAR2 (Homo sapiens, UniProt P55085); assay: Ca^2+ flux assay, agonist mode, 1321N1-hPAR2 cells; design: Ca^2+ mobilisation tested as agonist, Fig 1c source data / Ca2+ response (Fig 2c), individual replicate values: unit not given here; settings: for Ca2+ response (Fig 2c), individual replicate values: hPAR2
T1 sequence (P55085 26-397): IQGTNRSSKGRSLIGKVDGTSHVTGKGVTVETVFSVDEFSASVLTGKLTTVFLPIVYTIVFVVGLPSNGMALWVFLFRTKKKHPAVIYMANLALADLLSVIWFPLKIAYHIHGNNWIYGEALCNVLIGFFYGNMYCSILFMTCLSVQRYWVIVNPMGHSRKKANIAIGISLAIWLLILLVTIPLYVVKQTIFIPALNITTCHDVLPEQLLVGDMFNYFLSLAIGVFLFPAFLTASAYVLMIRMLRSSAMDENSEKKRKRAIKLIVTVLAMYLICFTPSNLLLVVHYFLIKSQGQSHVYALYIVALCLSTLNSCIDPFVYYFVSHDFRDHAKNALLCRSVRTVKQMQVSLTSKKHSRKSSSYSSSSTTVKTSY
Protocol: Cells were loaded with Fluo-8 NW calcium dye (AAT Bioquest) for 30 min at 37 °C before compounds in Hank’s balanced salt solution (HBSS, ThermoFisher Scientific) with 20 mM HEPES (ThermoFisher Scientific), 0.1% bovine serum albumin (BSA, Sigma) and 0.5% DMSO were added and simultaneously evaluated for changes in intracellular [Ca^2+] using FLIPR TETRA (Molecular Devices) to detect agonism. For each concentration, the difference between the maximum peak Ca^2+ response and baseline response is reported. […] Antagonism experiments were also carried out on 1321N1-PAR2[WT], 1321N1-PAR2[F154A], and 1321N1-PAR2[G157C] as described. Experiments with trypsin in 1321N1-hPAR2 cells were performed in the presence of 1 µM Vorapaxar (Chemtronica) to remove any interference of PAR1 activity. […] Antagonism experiments for CHO-hPAR2 and HT-29 cells were performed in 96-well plates at 30,000 cells/well. Cells were loaded with Fluo-3 AM calcium dye (Sigma-Aldrich) for 60 min at 37 °C in HBSS with 1% FBS, 0.2% pluronic acid, 20 mM HEPES and 2.5 mM probenecid prior to the addition of antagonist. The antagonist was pre-incubated for 60 min at 37 °C followed by the addition of bovine trypsin (30 nM) at EC80. Intracellular [Ca^2+] flux was measured using FLIPR TETRA (Molecular Devices) and the difference between the maximum peak Ca^2+ response and baseline response is reported.
(§1) Binding data were analysed using the One site – Fit Ki model in GraphPad Prism 8 (GraphPad Software) to determine binding affinity. Pharmacology in vitro potency data was analysed with a 4-parameter logistic fit using the equation y = Bottom + (Top − Bottom)/[…] where y is the response, x is the 10-logarithm of the drug concentration, Bottom is no response and Top is full response in GraphPad Prism 8 or Genedata Screener (Genedata). pEC50 and pIC50 data are presented as mean ± standard error of the mean (s.e.m.) derived from the number of independent experiments stated. Schild slope analysis was calculated using Graphpad Prism 8 Gaddum/Schild EC50 global fitting (shared model parameters between all data sets) competitive model. […] Schild slope quantifies the shifts in agonist response in the presence of antagonist, a Schild slope of 1 indicates the antagonist is competitive and extra-sum-of-squares F-test (p < 0.05) was used to compare the calculated Schild slope against a hypothetical Schild slope of 1. […] The relative activity was calculated using (EmaxEC50’)/(Emax’EC50) with the Hill slope help constant at 1. EC50’ and Emax’ denote the EC50 and Emax in the absence of allosteric modulator, while EC50 and Emax denote those measured in the presence of allosteric modulator. When the Hill slope = 1, the relative activity plot approaches an asymptote corresponding to the estimate of the γ value.

rat PAR2 = target: T2, rat PAR2 (Rattus norvegicus, UniProt Q63645); assay: Ca^2+ flux assay, inhibition of SLIGRL-NH2 activation in rat KNRK cells; settings: SLIGRL-NH2, rat PAR2 in KNRK cells; mean ± s.e.m.; read-out: Ca^2+ flux (rPAR2) pIC50 (converted)
T2 construct: a rat KNRK cell line with endogenous expression of rat PAR2; host or cells: rat KNRK cells
T2 sequence (Q63645 26-397): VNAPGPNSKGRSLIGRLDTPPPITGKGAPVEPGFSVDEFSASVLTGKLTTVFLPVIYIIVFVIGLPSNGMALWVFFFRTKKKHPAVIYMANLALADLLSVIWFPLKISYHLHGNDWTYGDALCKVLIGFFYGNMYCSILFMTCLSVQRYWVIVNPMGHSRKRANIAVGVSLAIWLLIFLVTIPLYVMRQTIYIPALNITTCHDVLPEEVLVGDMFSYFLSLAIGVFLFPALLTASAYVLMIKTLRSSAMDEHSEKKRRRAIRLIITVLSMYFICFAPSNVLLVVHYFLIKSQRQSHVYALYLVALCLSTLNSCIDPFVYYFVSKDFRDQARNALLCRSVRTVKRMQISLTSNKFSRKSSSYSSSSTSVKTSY

hPAR2 [2] = target: T1, hPAR2; assay: β-arrestin-2 recruitment assay, inhibition of SLIGRL-NH2 in U2OS-hPAR2 cells; settings: SLIGRL-NH2, U2OS-hPAR2; mean ± s.e.m.; read-out: β-arrestin (hPAR2) pIC50 (converted)
Protocol: β‐Arrestin-2 recruitment was measured in U2OS-hPAR2 cells using the DiscoverX assay kit, according to the manufacturer’s instructions. Briefly, cells were seeded in McCoy’s 5A media containing 10% FBS at 4000 cells per well in 384-well plates and incubated overnight at 37 °C, 5% CO2. Antagonist compounds (30 µM–1 nM) were incubated with the cells for 30 min prior to the addition of agonist SLIGRL-NH2 (10 µM) at EC80 and further incubation for 90 min at 37 °C. Working detection solution (12 µl) was then added to each well, incubated at room temperature in the dark for 60 min and the chemiluminescence signal read on the EnVision microplate reader (Perkin Elmer).
as §1

hPAR2 [3] = target: T1, hPAR2; assay: Ca^2+ flux assay, inhibition of trypsin activation in 1321N1-hPAR2 cells (with 1 µM Vorapaxar); settings: 1321N1-hPAR2 cells, 1 µM Vorapaxar

higher potency than SLIGKV-NH2, Ca^2+ signalling (hPAR2 [1]; 1321N1-hPAR2) [fold] | lower potency than GB110, Ca^2+ signalling (hPAR2 [1]; 1321N1-hPAR2) [fold] | EC50 (hPAR2 [1]; 1321N1-hPAR2 cells, mean ± s.e.m., read-out: Ca^2+ flux pEC50 (converted)) [nM] | Ca2+ response (Fig 2c), individual replicate values (hPAR2 [1]; [compound],M -7.64088) | Ca2+ response (Fig 2c), individual replicate values (hPAR2 [1]; [compound],M -8.118) | Ca2+ response (Fig 2c), individual replicate values (hPAR2 [1]; [compound],M -8.59512) | IC50 (rat PAR2) [nM] | IC50 (hPAR2 [2]) [nM] | shape of inhibition of trypsin-induced Ca^2+ mobilisation (hPAR2 [3]) | SMILES | Ca2+ response (Fig 2c), individual replicate values (hPAR2 [1]; [compound],M -4.30103) | Ca2+ response (Fig 2c), individual replicate values (hPAR2 [1]; [compound],M -4.77815) | Ca2+ response (Fig 2c), individual replicate values (hPAR2 [1]; [compound],M -5.25527) | Ca2+ response (Fig 2c), individual replicate values (hPAR2 [1]; [compound],M -5.73239) | Ca2+ response (Fig 2c), individual replicate values (hPAR2 [1]; [compound],M -6.20952) | Ca2+ response (Fig 2c), individual replicate values (hPAR2 [1]; [compound],M -6.68664) | Ca2+ response (Fig 2c), individual replicate values (hPAR2 [1]; [compound],M -7.16376)
7 | 6 | 166 | 5.851 and 8.888 and 9.461 and 7.513 | -2.628 and 1.21 and 2.414 and 2.5854 | -2.8 and -3.316 and -1.4252 and -1.712 |  |  |  | CNC(=O)[C@H]1CC[C@@H](NC(=O)[C@H](CC2CCCCC2)NC(=O)c2cn(Cc3ccccc3)nn2)c2ccccc21 [AZ2429] | 115.742 and 78.7868 and 73.0001 and 99.0117 | 114.252 and 90.1883 and 78.2712 and 103.481 | 97.9804 and 100.329 and 107.319 and 71.9688 | 87.2091 and 90.6467 and 67.5571 and 89.0425 | 54.0357 and 69.6197 and 81.4796 and 66.5831 | 45.3269 and 46.8166 and 52.6033 and 41.6601 | 19.1435 and 34.6702 and 20.5758 and 32.3784
 |  |  |  |  |  | 5.01 | 490 | biphasic inhibition curves | C[C@@H](C1CCCCC1)n1c(-c2cc3c(cc2Br)OCO3)nc2cc(C(=O)Nc3ccncc3)ccc21 [AZ2623] |  |  |  |  |  |  | 
